Key:
Assay in all cases: relative viability (nuclei count vs DMSO), 5 days (fraction); higher = more cells survive
[1] = compound: C(C(=O)C(=O)O)Br [Bromopyruvate] + Nc1ncn([C@H]2C[C@H](O)[C@@H](CO)O2)c(=O)n1 [Decitabine] (partner 2 µM)
Outline: (§1)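 One day after seeding in 1536-well plates, lung cancer cell lines were dosed by pin tool. Dosing was either single-drug or a fixed anchor-drug dose plus five library-drug doses (not always all listed) in √10 steps. After 5 days, nuclei were stained in one fix-and-stain step and counted on 4× images, and relative viability is the nuclei count of treated wells over that of vehicle wells, given as the median of duplicate plates.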

[2] = compound: C(C(=O)C(=O)O)Br [Bromopyruvate] + N=C(N)NC(=N)NCCc1ccccc1 [Phenformin] (partner 250 µM)
Outline: as §1

[3] = compound: C(C(=O)C(=O)O)Br [Bromopyruvate] + CC(=O)Nc1cccc(-n2c(=O)n(C3CC3)c(=O)c3c(Nc4ccc(I)cc4F)n(C)c(=O)c(C)c32)c1 [Trametinib] (partner 0.02 µM)
Outline: as §1

[4] = compound: CC(O)(CS(=O)(=O)c1ccc(F)cc1)C(=O)Nc1ccc(C#N)c(C(F)(F)F)c1 [Bicalutamide] + CC1(C)CCC(c2ccc(Cl)cc2)=C(CN2CCN(c3ccc(C(=O)NS(=O)(=O)c4ccc(N[C@H](CCN5CCOCC5)CSc5ccccc5)c(S(=O)(=O)C(F)(F)F)c4)cc3)CC2)C1 [Navitoclax] (partner 0.5 µM)
Outline: as §1

For NCI-H661, the relative viability ([1]; first compound 1 µM) was 0.505, the relative viability ([1]; first compound 3.162 µM) was 0.571 and the relative viability ([1]; first compound 10 µM) was 0.654. The relative viability ([1]; first compound 31.62 µM) was 0.546, the relative viability ([1]; first compound 100 µM) was 0.523 and the relative viability ([2]; first compound 1 µM) was 0.294. The relative viability ([2]; first compound 3.162 µM) was 0.263, the relative viability ([2]; first compound 10 µM) was 0.237 and the relative viability ([2]; first compound 31.62 µM) was 0.287. For the same cell line, the relative viability ([2]; first compound 100 µM) was 0.276, the relative viability ([3]; first compound 1 µM) was 0.546 and the relative viability ([3]; first compound 3.162 µM) was 0.588. It also gave a relative viability ([3]; first compound 10 µM) of 0.579, a relative viability ([3]; first compound 31.62 µM) of 0.523 and a relative viability ([3]; first compound 100 µM) of 0.603.
Cell Line NCI-H650 has a relative viability ([1]; first compound 1 µM) of 0.295, a relative viability ([1]; first compound 3.162 µM) of 0.322 and a relative viability ([1]; first compound 10 µM) of 0.316. For the same cell line, the relative viability ([1]; first compound 31.62 µM) was 0.281, the relative viability ([1]; first compound 100 µM) was 0.26 and the relative viability ([2]; first compound 1 µM) was 0.532. For the same cell line, the relative viability ([2]; first compound 3.162 µM) was 0.45, the relative viability ([2]; first compound 10 µM) was 0.414 and the relative viability ([2]; first compound 31.62 µM) was 0.462. It also gave a relative viability ([2]; first compound 100 µM) of 0.47, a relative viability ([3]; first compound 1 µM) of 0.971 and a relative viability ([3]; first compound 3.162 µM) of 1.02. For the same cell line, the relative viability ([3]; first compound 10 µM) was 0.928, the relative viability ([3]; first compound 31.62 µM) was 0.955 and the relative viability ([3]; first compound 100 µM) was 0.991.
With A549 the relative viability ([1]; first compound 1 µM) was 0.225, the relative viability ([1]; first compound 3.162 µM) was 0.271 and the relative viability ([1]; first compound 10 µM) was 0.36. The relative viability ([1]; first compound 31.62 µM) was 0.308, the relative viability ([1]; first compound 100 µM) was 0.266 and the relative viability ([2]; first compound 1 µM) was 0.17. For the same cell line, the relative viability ([2]; first compound 3.162 µM) was 0.16, the relative viability ([2]; first compound 10 µM) was 0.0997 and the relative viability ([2]; first compound 31.62 µM) was 0.234. For the same cell line, the relative viability ([2]; first compound 100 µM) was 0.22, the relative viability ([4]; first compound 0.08 µM) was 1.33 and the relative viability ([4]; first compound 0.253 µM) was 1.16. The relative viability ([4]; first compound 0.8 µM) was 1.36 and the relative viability ([4]; first compound 2.53 µM) was 1.08.
Cell Line NCI-H358 has a relative viability ([1]; first compound 1 µM) of 0.2, a relative viability ([1]; first compound 3.162 µM) of 0.21 and a relative viability ([1]; first compound 10 µM) of 0.223. The relative viability ([1]; first compound 31.62 µM) was 0.247, the relative viability ([1]; first compound 100 µM) was 0.238 and the relative viability ([2]; first compound 1 µM) was 0.406. The relative viability ([2]; first compound 3.162 µM) was 0.327, the relative viability ([2]; first compound 10 µM) was 0.351 and the relative viability ([2]; first compound 31.62 µM) was 0.304. For the same cell line, the relative viability ([2]; first compound 100 µM) was 0.315, the relative viability ([3]; first compound 1 µM) was 0.145 and the relative viability ([3]; first compound 3.162 µM) was 0.132. It also gave a relative viability ([3]; first compound 10 µM) of 0.139, a relative viability ([3]; first compound 31.62 µM) of 0.128 and a relative viability ([3]; first compound 100 µM) of 0.133.
NCI-H1563 was tested, and the relative viability ([2]; first compound 1 µM) was 0.621, the relative viability ([2]; first compound 3.162 µM) was 0.748 and the relative viability ([2]; first compound 10 µM) was 0.643. For the same cell line, the relative viability ([2]; first compound 31.62 µM) was 0.673 and the relative viability ([2]; first compound 100 µM) was 0.657.
Cell Line NCI-H2228 has a relative viability ([2]; first compound 1 µM) of 0.341, a relative viability ([2]; first compound 3.162 µM) of 0.418 and a relative viability ([2]; first compound 10 µM) of 0.178. For the same cell line, the relative viability ([2]; first compound 31.62 µM) was 0.285, the relative viability ([2]; first compound 100 µM) was 0.334 and the relative viability ([3]; first compound 1 µM) was 0.472. The relative viability ([3]; first compound 3.162 µM) was 0.505, the relative viability ([3]; first compound 10 µM) was 0.548 and the relative viability ([3]; first compound 31.62 µM) was 0.514. The relative viability ([3]; first compound 100 µM) was 0.538, the relative viability ([4]; first compound 0.08 µM) was 0.636 and the relative viability ([4]; first compound 0.253 µM) was 0.863. The relative viability ([4]; first compound 0.8 µM) was 0.856 and the relative viability ([4]; first compound 2.53 µM) was 0.959.
For SW 900, the relative viability ([1]; first compound 1 µM) was 0.451, the relative viability ([1]; first compound 3.162 µM) was 0.485 and the relative viability ([1]; first compound 10 µM) was 0.462. It also gave a relative viability ([1]; first compound 31.62 µM) of 0.419, a relative viability ([1]; first compound 100 µM) of 0.449 and a relative viability ([2]; first compound 1 µM) of 0.645. The relative viability ([2]; first compound 3.162 µM) was 0.55, the relative viability ([2]; first compound 10 µM) was 0.755 and the relative viability ([2]; first compound 31.62 µM) was 0.706. The relative viability ([2]; first compound 100 µM) was 0.627, the relative viability ([3]; first compound 1 µM) was 0.865 and the relative viability ([3]; first compound 3.162 µM) was 0.76. It also gave a relative viability ([3]; first compound 10 µM) of 0.92, a relative viability ([3]; first compound 31.62 µM) of 0.729 and a relative viability ([3]; first compound 100 µM) of 0.739.
In the case of IA-LM, the relative viability ([4]; first compound 0.08 µM) is reported as 0.945, the relative viability ([4]; first compound 0.253 µM) is reported as 0.876 and the relative viability ([4]; first compound 0.8 µM) is reported as 0.99. The relative viability ([4]; first compound 2.53 µM) was 0.751.
In the case of NCI-H1703, the relative viability ([4]; first compound 0.08 µM) is reported as 0.998, the relative viability ([4]; first compound 0.253 µM) is reported as 0.985 and the relative viability ([4]; first compound 0.8 µM) is reported as 1.45. For the same cell line, the relative viability ([4]; first compound 2.53 µM) was 0.484.
In the case of LCLC-103H, the relative viability ([1]; first compound 1 µM) is reported as 0.757, the relative viability ([1]; first compound 3.162 µM) is reported as 0.764 and the relative viability ([1]; first compound 10 µM) is reported as 0.797. The relative viability ([1]; first compound 31.62 µM) was 0.77, the relative viability ([1]; first compound 100 µM) was 0.825 and the relative viability ([2]; first compound 1 µM) was 0.343. It also gave a relative viability ([2]; first compound 3.162 µM) of 0.338, a relative viability ([2]; first compound 10 µM) of 0.371 and a relative viability ([2]; first compound 31.62 µM) of 0.362. It also gave a relative viability ([2]; first compound 100 µM) of 0.365, a relative viability ([3]; first compound 1 µM) of 0.681 and a relative viability ([3]; first compound 3.162 µM) of 0.692. The relative viability ([3]; first compound 10 µM) was 0.696, the relative viability ([3]; first compound 31.62 µM) was 0.693 and the relative viability ([3]; first compound 100 µM) was 0.767.
In the case of NCI-H1648, the relative viability ([1]; first compound 1 µM) is reported as 0.465, the relative viability ([1]; first compound 3.162 µM) is reported as 0.572 and the relative viability ([1]; first compound 10 µM) is reported as 0.454. The relative viability ([1]; first compound 31.62 µM) was 0.511, the relative viability ([1]; first compound 100 µM) was 0.491 and the relative viability ([3]; first compound 1 µM) was 0.349. For the same cell line, the relative viability ([3]; first compound 3.162 µM) was 0.413, the relative viability ([3]; first compound 10 µM) was 0.472 and the relative viability ([3]; first compound 31.62 µM) was 0.545. The relative viability ([3]; first compound 100 µM) was 0.482.
